Experimental data as given in US8791139B2, “Anthranilic diamide derivatives” (Bayer Cropscience AG, priority 2010, dated 2014).
“And” between values parts separate entries of the source, which are not always exact repeats. Equal entries are not always repeated. Where two headings read alike, the source gives them in different places.

Key:
[1] = system: caterpillars of the armyworm (Spodoptera frugiperda); test: Spodoptera frugiperda test (SPODFR spray treatment); assay type: in vivo; details: 168 h, read-out: activity (caterpillars killed)
Protocol: After 7 days, the effect in % is determined.

[2] = logP by HPLC on reversed-phase columns (C18), EEC Directive 79/831 Annex V.A8; assay type: physicochemical; details: for logP: HPLC reversed-phase C18, acidic range pH 2.7
Protocol: The logP values reported in the table above and in the Preparation Examples were determined in accordance with EEC Directive 79/831 Annex V.A8 by HPLC (High Performance Liquid Chromatography) on reversed-phase columns (C18), with the following methods:
The LC-MS determination in the acidic range is carried out at pH 2.7 using the mobile phases 0.1% aqueous formic acid and acetonitrile (contains 0.1% formic acid), linear gradient from 10% acetonitrile to 95% acetonitrile
Calibration was carried out using unbranched alkan-2-ones (having from 3 to 16 carbon atoms) with known logP values (the logP values were determined by the retention times using linear interpolation between two successive alkanones).

[3] = application rate 100 g/ha, after 7 days
[4] = reversed-phase HPLC column (C18), pH 2.7, HPLC reversed-phase C18, acidic range pH 2.7, 0.1% aqueous formic acid/acetonitrile, table of compounds of formula (I), read-out: log P
[5] = reversed-phase HPLC column (C18), pH 2.7, HPLC reversed-phase C18, acidic range pH 2.7, Preparation Examples (intermediates), read-out: logP
[6] = Preparation Examples (intermediates)

Compound | chromatographic logP [2, 5] | further results
Cc1cc(Cl)cc(C(=O)NC(C)C)c1NC(=O)c1cc(C(=O)Nc2ccc(C(F)(F)F)cc2)nn1-c1ncccc1Cl [Example 4] | – | pest or weed control at 100 g/ha [1]: 83%; chromatographic logP ([2]; pH 2.7, log P): 3.96
Cc1cc(Cl)cc(C(=O)NC(C)C)c1NC(=O)c1cc(CNS(=O)(=O)c2ccc(C(F)(F)F)cc2)nn1-c1ncccc1Cl [Example 46] | – | pest or weed control at 100 g/ha [1]: 83%; chromatographic logP ([2]; pH 2.7, log P): 3.47
Cc1cc(Cl)cc(C(=O)NC(C)C)c1NC(=O)c1cc(CNS(=O)(=O)Cc2ccc(C(F)(F)F)cc2C(F)(F)F)nn1-c1ncccc1Cl [Example 52] | – | pest or weed control at 100 g/ha [1, 3]: 83%; chromatographic logP [2, 4]: 3.92
Cc1cc(Cl)cc(C(=O)NC(C)C)c1NC(=O)c1cc(CN(C)S(=O)(=O)c2cc(C(F)(F)F)cc(C(F)(F)F)c2)nn1-c1ncccc1Cl [Example 55] | – | pest or weed control at 100 g/ha [1, 3]: 100%; chromatographic logP [2, 4]: 4.5
Cc1cc(Cl)cc(C(=O)NC(C)C)c1NC(=O)c1cc(CN(C)S(=O)(=O)Cc2cc(C(F)(F)F)cc(C(F)(F)F)c2)nn1-c1ncccc1Cl [Example 56] | – | pest or weed control at 100 g/ha [1, 3]: 100%; chromatographic logP [2, 4]: 4.37
CNC(=O)c1cc(C#N)cc(C)c1NC(=O)c1cc(Nc2cccc(C(F)(F)F)n2)nn1-c1ncccc1Cl [Example 69] | – | chromatographic logP ([2]; pH 2.7, log P): 2.89
CNC(=O)c1cc(C#N)cc(C)c1NC(=O)c1cc(Nc2cc(C(F)(F)F)ccn2)nn1-c1ncccc1Cl [Example 70] | – | chromatographic logP ([2]; pH 2.7, log P): 2.76
Cc1cc(C#N)cc(C(=O)NC(C)C)c1NC(=O)c1cc(Nc2ccc(C(F)(F)F)c(C(F)(F)F)c2)nn1-c1ncccc1Cl [Example 72] | – | chromatographic logP ([2]; pH 2.7, log P): 3.91
Cc1cc(C#N)cc(C(=O)NC(C)C)c1NC(=O)c1cc(Nc2cccc(C(F)(F)F)c2)nn1-c1ncccc1Cl [Example 75] | – | chromatographic logP ([2]; pH 2.7, log P): 3.66
CN(Cc1cc(C(=O)O)n(-c2ncccc2Cl)n1)S(=O)(=O)Cc1cc(C(F)(F)F)cc(C(F)(F)F)c1 [Example No. III-1, 3-{[{[3,5-bis(trifluoromethyl)benzyl]sulphonyl}(methyl)amino]methyl}-1-(3-chloropyridin-2-yl)-1H-pyrazole-5-carboxylic acid] | 3.07 | –
O=C(C(=O)c1ccc(Cl)cc1Cl)c1cc(C(=O)O)n(-c2ncccc2Cl)n1 [Example No. III-2, 1-(3-chloropyridin-2-yl)-3-[(2,4-dichlorophenyl)(oxo)acetyl]-1H-pyrazole-5-carboxylic acid] | 2.78 | –
O=C(O)c1cc(C#Cc2ccc(OC(F)(F)F)cc2)nn1-c1ncccc1Cl [Example No. III-3, 1-(3-chloropyridin-2-yl)-3-{[4-(trifluoromethoxy)phenyl]ethynyl}-1H-pyrazole-5-carboxylic acid] | 3.36 | –
O=C(Cn1nnc(C(F)(F)F)n1)c1cc(C(=O)O)n(-c2ncccc2Cl)n1 [Example No. III-4, 1-(3-chloropyridin-2-yl)-3-{[5-(trifluoromethyl)-2H-tetrazol-2-yl]acetyl}-1H-pyrazole-5-carboxylic acid] | 2.25 | –
O=C(Nc1ccc(C(F)(F)F)cc1)c1cc(C(=O)O)n(-c2ncccc2Cl)n1 [Example No. III-8] | – | logP [2, 6]: 2.67
COC(=O)c1cc(C#Cc2ccc(OC(F)(F)F)cc2)nn1-c1ncccc1Cl [Example No. VII, methyl 1-(3-chloropyridin-2-yl)-3-{[4-(trifluoromethoxy)phenyl]ethinyl}-1H-pyrazole-5-carboxylate] | – | logP [2, 6]: 4.46
Methyl 1-(3-chloropyridin-2-yl)-3-{1-hydroxy-2-[5-(trifluoromethyl)-2H-tetrazol-2-yl]ethyl}-1H-pyrazole-5-carboxylate/methyl 1-(3-chloropyridin-2-yl)-3-{1-hydroxy-2-[5-(trifluoromethyl)-1H-tetrazol-1-yl]ethyl}-1H-pyrazole-5-carboxylate [Example No. XII] | – | logP [2, 6]: 2.64 and 2.68
Methyl 1-(3-chloropyridin-2-yl)-3-{(E)-2-[5-(trifluoromethyl)-2H-tetrazol-2-yl]vinyl}-1H-pyrazole-5-carboxylate/methyl 1-(3-chloropyridin-2-yl)-3-{(E)-2-[5-(trifluoromethyl)-1H-tetrazol-1-yl]vinyl}-1H-pyrazole-5-carboxylate [Example No. XIII] | – | logP [2, 6]: 3.37 and 3.49

Now from value to compound, other results behind:

chromatographic logP [2, 5] | Compound | further results
3.47 | O=C(O)c1cc(N2CCN(c3cc(C(F)(F)F)cc(C(F)(F)F)c3)C2=O)nn1-c1ncccc1Cl [Example No. III-5, 3-{3-[3,5-bis(trifluoromethyl)phenyl]-2-oxoimidazolidin-1-yl}-1-(3-chloropyridin-2-yl)-1H-pyrazole-5-carboxylic acid] | –
2.33 | O=C(c1ccc(C(F)(F)F)nc1)c1cc(C(=O)O)n(-c2ncccc2Cl)n1 [Example No. III-6, 1-(3-chloropyridin-2-yl)-3-{[6-(trifluoromethyl)pyridin-3-yl]carbonyl}-1H-pyrazole-5-carboxylic acid] | –
2.79 | O=C(O)c1cc(Nc2ccc(C(F)(F)F)cn2)nn1-c1ncccc1Cl [Example No. III-10, 1-(3-Chloropyridin-2-yl)-3-{[5-(trifluoromethyl)pyridin-2-yl]amino}-1H-pyrazole-5-carboxylic acid] | –
3.5 | CCOC(=O)c1cc(C(=O)Cn2nnc(C(F)(F)F)n2)nn1-c1ncccc1Cl [Example No. IX, ethyl 1-(3-chloropyridin-2-yl)-3-{[5-(trifluoromethyl)-2H-tetrazol-2-yl]acetyl}-1H-pyrazole-5-carboxylate] | –
3.54 | COC(=O)c1cc(C(=O)Nc2ccc(C(F)(F)F)cc2)nn1-c1ncccc1Cl [Example No. IX-e, methyl 1-(3-chloropyridin-2-yl)-3-{[4-(trifluoromethyl)phenyl]carbamoyl}-1H-pyrazole-5-carboxylate] | –
3.83 | COC(=O)c1cc(CN(C)S(=O)(=O)Cc2cc(C(F)(F)F)cc(C(F)(F)F)c2)nn1-c1ncccc1Cl [Example No. V, methyl 3-{[{[3,5-bis(trifluoromethyl)benzyl]sulphonyl}(methyl)amino]methyl}-1-(3-chloropyridin-2-yl)-1H-pyrazole-5-carboxylate] | –
2.31 | CCOC(=O)c1cc(C(C)=O)nn1-c1ncccc1Cl [Example No. VII-a, ethyl 3-acetyl-1-(3-chloropyridin-2-yl)-1H-pyrazole-5-carboxylate] | –
4.82 | CCOC(=O)c1cc(N2CCN(c3cc(C(F)(F)F)cc(C(F)(F)F)c3)C2=O)nn1-c1ncccc1Cl [Example No. VII-b, ethyl 3-{3-[3,5-bis(trifluoromethyl)phenyl]-2-oxoimidazolidin-1-yl}-1-(3-chloropyridin-2-yl)-1H-pyrazole-5-carboxylate] | –
2.86 | COC(=O)c1cc(Cc2ccc(C(F)(F)F)nc2)nn1-c1ncccc1Cl [Example No. VII-c, methyl 1-(3-chloropyridin-2-yl)-3-{[6-(trifluoromethyl)pyridin-3-yl]methyl}-1H-pyrazole-5-carboxylate] | –
1.82 | COC(=O)c1cc(C=O)nn1-c1ncccc1Cl [Example No. VII-e, methyl 1-(3-chloropyridin-2-yl)-3-formyl-1H-pyrazole-5-carboxylate] | –
4.29 | CCOC(=O)c1cc(C(=O)C(=O)c2ccc(Cl)cc2Cl)nn1-c1ncccc1Cl [Example No. VIII, ethyl 1-(3-chloropyridin-2-yl)-3-[(2,4-dichlorophenyl)(oxo)acetyl]-1H-pyrazole-5-carboxylate] | –
2.87 | CCOC(=O)c1cc(C(=O)CBr)nn1-c1ncccc1Cl [Example No. VIII-a, ethyl 3-(bromoacetyl)-1-(3-chloropyridin-2-yl)-1H-pyrazole-5-carboxylate] | –
3.33 | COC(=O)c1cc(C(=O)c2ccc(C(F)(F)F)nc2)nn1-c1ncccc1Cl [Example No. VIII-c, methyl 1-(3-chloropyridin-2-yl)-3-{[6-(trifluoromethyl)pyridin-3-yl]carbonyl}-1H-pyrazole-5-carboxylate] | –
1.38 | COC(=O)c1cc(C(=O)O)nn1-c1ncccc1Cl [Example No. VIII-e, 1-(3-chloropyridin-2-yl)-5-(methoxycarbonyl)-1H-pyrazole-3-carboxylic acid] | –
1.67 | COC(=O)c1cc(C2CO2)nn1-c1ncccc1Cl (stereo not drawn) [Example No. XI, Methyl 1-(3-chloropyridin-2-yl)-3-(oxiran-2-yl)-1H-pyrazole-5-carboxylate] | –
1.09 | COC(=O)c1cc(N)nn1-c1ncccc1Cl [Example No. XIX, Methyl 3-amino-1-(3-chloropyridin-2-yl)-1H-pyrazole-5-carboxylate] | –
1.83 | O=[N+]([O-])c1ccn(-c2ncccc2Cl)n1 [Example No. XVI, 3-Chloro-2-(3-nitro-1H-pyrazol-1-yl)pyridine] | –
0.9 | O=C(O)c1cc([N+](=O)[O-])nn1-c1ncccc1Cl [Example No. XVII, 1-(3-Chloropyridin-2-yl)-3-nitro-1H-pyrazole-5-carboxylic acid] | –
2.18 | COC(=O)c1cc([N+](=O)[O-])nn1-c1ncccc1Cl [Example No. XVIII, Methyl 1-(3-chloropyridin-2-yl)-3-nitro-1H-pyrazole-5-carboxylate] | –
3.14 | COC(=O)c1cc(Nc2ccc(C(F)(F)F)cn2)nn1-c1ncccc1Cl [Example No. XX, Methyl 1-(3-chloropyridin-2-yl)-3-{[5-(trifluoromethyl)pyridin-2-yl]amino}-1H-pyrazole-5-carboxylate] | –
